For experiment [1], the target named is T1, Rat brain protein farnesyltransferase (Rattus norvegicus, UniProt Q02293+Q04631).
T1 construct: The enzyme was purified according to Reiss, Y., et al., Cell, 62: 81-88 (1990), utilizing steps one through three; from tissue; host or cells: rat brain
In words: In vitro inhibition of protein farnesyltransferase (biotin-lamin substrate, scintillation proximity assay). The format is biochemical. The note with it: for inhibition at 10 µM: compared to uninhibited control; for inhibition at 1 µM: 1 μM (footnote *), read-out: % Inhibition at 1 μM (protein farnesyltransferase, values marked *). As for the experimental part:
In vitro inhibition of protein farnesyltransferase may be measured by the following procedure. (Procedures for determination of the inhibition of farnesylation of the oncogene protein Ras are described by Goldstein, et al., J. Biol. Chem., 266: 15575-15578 (1991) and by Singh in U.S. Pat. No. 5,245,061 both of which are incorporated herein by reference.)
Rat brain protein farnesyltransferase activity was measured using the biotin-lamin substrate (which is known to undergo farnesylation in a manner analogous to Ras protein) and radioactive farnesyl diphosphate provided by Amersham Life Science in their commercial scintillation proximity assay kit for the determination of farnesyltransferase. The enzyme was purified according to Reiss, Y., et al., Cell, 62: 81-88 (1990), utilizing steps one through three. The specific activity of the enzyme was approximately 10 nmol substrate farnesylated/mg enzyme/hour. […]
On the technique in general: In a scintillation proximity assay essentially only radioactivity close to the scintillant gives light.

In experiment [2] the target is T2, Rat liver microsomal squalene synthase (Rattus norvegicus, UniProt Q02769).
T2 construct: Rat liver microsomes, the source of enzyme, were prepared; from tissue; host or cells: rat liver microsomes
T2 sequence (Q02769 1-416): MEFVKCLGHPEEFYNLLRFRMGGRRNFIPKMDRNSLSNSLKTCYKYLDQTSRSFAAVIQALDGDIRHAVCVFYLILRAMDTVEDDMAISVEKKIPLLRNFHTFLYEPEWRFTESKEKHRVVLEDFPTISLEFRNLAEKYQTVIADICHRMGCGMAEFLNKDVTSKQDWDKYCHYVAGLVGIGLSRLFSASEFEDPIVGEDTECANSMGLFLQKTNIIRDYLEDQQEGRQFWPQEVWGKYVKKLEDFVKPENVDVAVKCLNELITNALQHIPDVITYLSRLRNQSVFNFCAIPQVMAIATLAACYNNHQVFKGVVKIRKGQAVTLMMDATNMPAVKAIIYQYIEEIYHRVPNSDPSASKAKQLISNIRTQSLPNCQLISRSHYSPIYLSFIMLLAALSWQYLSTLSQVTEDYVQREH
Put plainly: In vitro inhibition of squalene synthase (rat liver microsomes, 3H-farnesyl diphosphate). Type of experiment: biochemical. The conditions noted are these: for inhibition at 10 µM: 10 μM (footnote *), read-out: % Inhibition at 10 μM (squalene synthase, values marked *); for inhibition at 1 µM: compared to controls with no test compound. As for the experimental part:
In vitro inhibition of squalene synthase may be measured by the following procedure.
Rat liver microsomal squalene synthase activity was measured using radioactive farnesyl diphosphate as a substrate and quantitating squalene synthesis by counting the radioactive squalene formed.
Rat liver microsomes, the source of enzyme, were prepared according to the method of Gillies, P. J., et al., Exp. Molec. Pathol. 44: 329-339 (1986), a modification of the procedure of Erickson, S. K., and Cooper, A. D., Metabolism, 29: 991-996 (1980). Approximately 30 μg of microsomal protein was incubated for 10 minutes at 37° C. with 11 μM of ^3 H-farnesyl diphosphate, 49 mCi/mmol, and test compound in the presence of squalene (2 μL), Mg^++, KF, reduced B-nicotinamide adenine dinucleotide phosphate, dithiothreitol, and K2 PO4, pH 7.35, in a total volume of 200 μL. Oxygen was excluded from the closed incubation tube by degassing with nitrogen. The reaction was terminated by the addition of ethanolic KOH and after degassing with N2, the microsomal membranes were solubilized by heating at 60° C. for 30 minutes. The squalene was extracted into hexane, and the squalene was separated from all other radioactive molecules by passage over an activated alumina column. The solution was collected in scintillation vials, evaporated to dryness, liquid scintillation fluid was added, and the radioactivity was determined in a liquid scintillation counter. […]
For orientation: Liver microsomes are a subcellular fraction often used to study metabolism.

On to `CN(Cc1cccc(Oc2ccc(F)cc2)c1)C(=O)[C@H]1[C@H](C(=O)O)[C@H](C(=O)N(C)Cc2cccc(Oc3ccc(F)cc3)c2)[C@H]1C(=O)O` [Example 22, (1α,2β,3β,4α)-1,3-Di[N-methyl-N-(3-(4-fluorophenoxy)benzyl)aminocarbonyl]cyclobutane-2,4-dicarboxylic acid], for which the inhibition at 10 µM in experiment [1] was determined as 78%; in experiment [2], 47%. In experiment [1], `CCSCCN(Cc1ccc(Oc2ccccc2)cc1)C(=O)C1C(C(=O)O)C(C(=O)N(CCSCC)Cc2ccc(Oc3ccccc3)cc2)C1C(=O)O` (stereo not drawn) [Example 70, (1α,2β,3β,4α)-1,3-Di[N-(2-ethylthioethyl)-N-(4-phenoxybenzyl)aminocarbonyl]cyclobutane-2,4-dicarboxylic acid] showed an inhibition at 10 µM of 77%. Further, the inhibition at 1 µM in experiment [2] amounted to 76%. For `CN(Cc1ccc(Oc2ccccc2)cc1)C(=O)[C@H]1[C@H](C(=O)O)[C@H](C(=O)N(C)Cc2ccc(Oc3ccccc3)cc2)[C@H]1C(=O)O` [Example 14, (1α,2β,3β,4α)-1,3-Di[N-methyl-N-(4-phenoxybenzyl)aminocarbonyl]cyclobutane-2,4-dicarboxylic acid] the same measures were 34% and 47%. For `COCCN(Cc1ccc(Oc2ccccc2)cc1)C(=O)C1C(C(=O)O)C(C(=O)N(CCOC)Cc2ccc(Oc3ccccc3)cc2)C1C(=O)O` (stereo not drawn) [Example 68, (1α,2β,3β,4α)-1,3-Di[N-(2-methoxyethyl)-N-(4-phenoxybenzyl)aminocarbonyl]cyclobutane-2,4-dicarboxylic acid] the same measures were 49% and 52%. Take `COc1cccc(CCN(Cc2ccc(Oc3ccccc3)cc2)C(=O)[C@H]2[C@H](C(=O)O)[C@H](C(=O)N(CCc3cccc(OC)c3)Cc3ccc(Oc4ccccc4)cc3)[C@H]2C(=O)O)c1` [Example 76, (1α,2β,3β,4α)-1,3-Di[N-(4-phenoxybenzyl)-N-(3-methoxyphenethyl)aminocarbonyl]cyclobutane-2,4-dicarboxylic acid]: the inhibition at 10 µM in experiment [1] is 66%. This molecule yielded an inhibition at 1 µM in experiment [2] of 23%. Take `CC(C)=CCC/C(C)=C/CCN(C)C(=O)[C@H]1[C@H](C(=O)O)[C@H](C(=O)N(C)CC/C=C(\C)CCC=C(C)C)[C@H]1C(=O)O` [Example 32, (1α,2β,3β,4α)-1,3-Di[N-methyl-N-(4,8-dimethyl-3,7-nonadienyl)aminocarbonyl]cyclobutane-2,4-dicarboxylic acid]: the inhibition at 10 µM in experiment [1] is 54%; in experiment [2] it was 40%. Consider `CCCN(Cc1ccc(Sc2ccccc2)cc1)C(=O)C1C(C(=O)O)C(C(=O)N(CCC)Cc2ccc(Sc3ccccc3)cc2)C1C(=O)O` (stereo not drawn) [Example 64], for which testing at 10 µM in experiment [1] gave an inhibition of 64%. The inhibition at 1 µM in experiment [2] is 33%. `CCCN(Cc1cccc(Oc2ccccc2)c1)C(=O)C1C(C(=O)O)C(C(=O)N(CCC)Cc2cccc(Oc3ccccc3)c2)C1C(=O)O` (stereo not drawn) [Example 51, (1α,2β,3β,4α)-1,3-Di[N-propyl-N-(3-phenoxybenzyl)aminocarbonyl]cyclobutane-2,4-dicarboxylic acid] yielded an inhibition at 10 µM in experiment [1] of 68%. The molecule further gave an inhibition at 1 µM in experiment [2] of 27%. The matching figures for `O=C(O)[C@H]1[C@H](C(=O)N(Cc2ccc(Oc3ccccc3)cc2)C2CCC2)[C@H](C(=O)O)[C@H]1C(=O)N(Cc1ccc(Oc2ccccc2)cc1)C1CCC1` [Example 99, (1α,2β,3β,4α)-1,3-Di[N-cyclobutyl-N-(4-phenoxybenzyl)aminocarbonyl]cyclobutane-2,4-dicarboxylic acid]: 52% and 20%. With `CCCN(Cc1ccc(Oc2cccc(C)c2)cc1)C(=O)C1C(C(=O)O)C(C(=O)N(CCC)Cc2ccc(Oc3cccc(C)c3)cc2)C1C(=O)O` (stereo not drawn) [Example 57, (1α,2β,3β,4α)-1,3-Di{N-propyl-N-[4-(3-methylphenoxy)benzyl]aminocarbonyl}cyclobutane-2,4-dicarboxylic acid], the inhibition at 1 µM is 26% in experiment [1] and 37% in experiment [2]. In the case of `CCCN(Cc1ccc(Oc2ccccc2)cc1)C(=O)[C@H]1[C@H](C(=O)O)[C@H](C(=O)N(Cc2ccccc2)Cc2ccc(Oc3ccccc3)cc2)[C@H]1C(=O)O` (relative stereo) [Example 40, (1α,2β,3β,4α)-1-[N-Propyl-N-(4-phenoxybenzyl)aminocarbonyl]-3-[N-benzyl-N-(4-phenoxybenzyl)aminocarbonyl]cyclobutane-2,4-dicarboxylic acid], the values for the inhibition at 1 µM in experiment [1] and in experiment [2] were 94% and 49%, respectively. With `O=C(O)[C@H]1[C@H](C(=O)N(Cc2ccc(Oc3ccccc3)cc2)Cc2cccs2)[C@H](C(=O)O)[C@H]1C(=O)N(Cc1ccc(Oc2ccccc2)cc1)Cc1cccs1` [Example 73, (1α,2β,3β,4α)-1,3-Di[N-(thien-2-ylmethyl)-N-(4-phenoxybenzyl)aminocarbonyl]cyclobutane-2,4-dicarboxylic acid], the inhibition at 1 µM is 92% in experiment [1] and 24% in experiment [2]. In the case of `CCCN(Cc1ccc(Oc2ccccc2)s1)C(=O)C1C(C(=O)O)C(C(=O)N(CCC)Cc2ccc(Oc3ccccc3)s2)C1C(=O)O` (stereo not drawn) [Example 53, (1α,2β,3β,4α)-1,3-Di[N-propyl-N-(5-phenoxythien-2-ylmethyl)aminocarbonyl]cyclobutane-2,4-dicarboxylic acid], 10 µM produced 69% inhibition in experiment [1]. For the same molecule, the inhibition at 1 µM in experiment [2] came to 23%.

Take `CCN(Cc1ccc(Oc2ccccc2)cc1)C(=O)[C@H]1[C@H](C(=O)O)[C@H](C(=O)N(CC)Cc2ccc(Oc3ccccc3)cc2)[C@H]1C(=O)O` [Example 17, (1α,2β,3β,4α)-1,3-Di(N-ethyl-N-(4-phenoxybenzyl)aminocarbonyl)cyclobutane-2,4-dicarboxylic acid]: the inhibition at 10 µM in experiment [1] is 49%. In experiment [2], the inhibition at 1 µM was 52%. For `CN(c1ccc(-c2ccccc2)cc1)C(=O)[C@H]1[C@H](C(=O)O)[C@H](C(=O)N(C)c2ccc(-c3ccccc3)cc2)[C@H]1C(=O)O` [Example 23, (1α,2β,3β,4α)-1,3-Di(N-methyl-N-biphenylaminocarbonyl)cyclobutane-2,4-dicarboxylic acid], in experiment [2], the inhibition at 10 µM amounted to 25%. For the molecule `O=C(O)[C@H]1[C@H](C(=O)N(Cc2ccc(Oc3ccccc3)cc2)Cc2ccc(Oc3ccccc3)cc2)[C@H](C(=O)O)[C@H]1C(=O)N(Cc1ccc(Oc2ccccc2)cc1)Cc1ccc(Oc2ccccc2)cc1` [Example 20, (1α,2β,3β,4α)-1,3-Di(N,N-di(4-phenoxybenzyl)aminocarbonyl)cyclobutane-2,4-dicarboxylic acid], the inhibition at 10 µM in experiment [2] came to 41%. Consider `CCCN(C(=O)C1C(C(=O)O)C(C(=O)N(CCC)c2ccc(Oc3ccccc3)cc2)C1C(=O)O)c1ccc(Oc2ccccc2)cc1` (stereo not drawn) [Example 66, (1α,2β,3β,4α)-1,3-Di[N-propyl-N-(4-phenoxyphenyl)aminocarbonyl]cyclobutane-2,4-dicarboxylic acid], for which, in experiment [1], 10 µM produced 88% inhibition.

For the molecule `CCCN(Cc1ccc(COc2ccccc2)cc1)C(=O)C1C(C(=O)O)C(C(=O)N(CCC)Cc2ccc(COc3ccccc3)cc2)C1C(=O)O` (stereo not drawn) [Example 65, (1α,2β,3β,4α)-1,3-Di[N-propyl-N-(4-phenoxymethylbenzyl)aminocarbonyl]-2,4-cyclobutanedicarboxylic acid], the inhibition at 1 µM in experiment [1] worked out at 52%. In the case of `O=C(O)CN(Cc1ccc(Oc2ccccc2)cc1)C(=O)C1C(C(=O)O)C(C(=O)N(CC(=O)O)Cc2ccc(Oc3ccccc3)cc2)C1C(=O)O` (stereo not drawn) [Example 43, (1α,2β,3β,4α)-1,3-Di[N-carboxymethyl-N-(4-phenoxybenzyl)aminocarbonyl]cyclobutane-2,4-dicarboxylic acid], in experiment [1], the inhibition at 1 µM stood at 54%.

By inhibition is commonly meant how much of the control response was suppressed.

The values above are taken from patent US5631401A, “Inhibitors of protein farnesyltransferase and squalene synthase” (Abbott Laboratories, priority 1995, dated 1997).
